Measurements taken from article PMC12172326 (Journal of Biomedical Science, 2025).

How the values were obtained:
[1] = test system: mice subjected to controlled cortical impact (CCI) TBI; assay: CCI TBI in mice: behavioral assessment; assay type: in vivo, mouse; settings: for CCI-induced asymmetry, elevated body swing test: 1 week post injury; for home cage activity during the initial 11 h following CCI: dark phase; for CCI-induced reduction in brake time (gait): left hind limb, 1 week after injury
Procedure: (§1) For behavioral analyses, mice were assessed for spatial memory, gait function, motor coordination/balance function and home cage activity. The animals were subsequently evaluated for cellular changes using histology and immunohistochemistry after euthanasia.
(§2) In order to develop a controlled cortical impact (CCI) model of TBI, mice were anesthetized with 2.5% 2,2,2-tribromoethanol (Avertin, 400 mg/kg, I.P.) (Sigma, St. Louis, MO, USA) and placed in a stereotaxic frame (Kopf Instruments, Tujunga, CA, USA). A 4 mm craniotomy was performed under sterile procedures; the craniotomy point was selected midway between the lambda and bregma sutures, and laterally midway between the central suture and the temporalis muscle. The skull fragment was then carefully removed without disruption of the underlying dura on the right side of the head. Before injury, the tip of the impactor was angled and kept perpendicular to the exposed cortical surface. The mouse CCI instrument consisted of an electromagnetic impactor, Impact One (Leica Biosystems Inc., Buffalo Grove, IL, USA) that allows independent manipulation of injury severity by adjusting the contact duration and velocity of a metal impactor and the depth of cortical deformation. In these experiments, the contact velocity was set at 5.0 m/s, the dwell time was set at 0.2 s, and the deformation depth was set at 1.5 mm to produce a moderate TBI. The injury site was cleaned and dried by use of sterile cotton tipped applicators prior to suturing the wound. During surgery and recovery, the body temperature of all animals was maintained at 36–37 °C by using a heating pad.
Behavioral tests were conducted 1 week and 2 weeks post the CCI/sham procedure, to evaluate motor function and coordination differences between groups, and to compare with data performed 1 week prior to either procedure. All behavioral tests were conducted during the animals’ day light cycle; home cages were moved to behavioral rooms at least 1 h before testing.
Home cage activity monitoring was automatically and non-intrusively monitored using the digital individually ventilated cage system (DVC™; Tecniplast). Mice were individually housed, and their activity was tracked for 3 days before CCI/sham and 7 days after CCI/sham procedures.
Beam Walking Test (BWT) was used to evaluate CCI-induced impairments in motor coordination. Mice have an intrinsic preference for a darkened enclosed environment, as compared to an open bright field. Each mouse was placed in a darkened one-side-open cube box for 2 min for habituation and then was brought to the other (light) end of the beam, to start the trial. Two beams were used in this study with the following dimensions: 0.6 cm or 1.2 cm (width) × 91 cm (length). The time taken for each mouse to traverse the beam to reach the dark cube box and the ‘immobility time’ spent between the moment a mouse was initially placed on the beam and it started walking were recorded. Two trials were recorded for each animal with the 1.2 cm-width beam, and an additional two trials with the 0.6 cm-width were subsequently recorded. The mean times to traverse the beam and the immobility times were calculated, and a plot was generated to evaluate treatment effects; these times were then used for statistical analysis.
Gait analysis was employed to assess gait parameters following a specific protocol provided by the DigiGait manufacturer (Mouse Specifics, Inc., Framingham, MA, USA). The study tracked gait function at three time points: baseline, 1-week prior to CCI (PRE), and 1- and 2-weeks post-CCI. At the beginning of the trial, mice were brought to the test chamber for habituation to the new environment for 2 min, and then were given a 1-min run at 5 cm/sec before a 1-min break. […] Videos were assessed using DigiGait software to evaluate parameters that included stride duration, length, paw angle, and stance for all four limbs, following Mouse Specifics, Inc.'s procedures. […]

[2] = test system: mice subjected to controlled cortical impact (CCI) TBI; assay: CCI TBI in mice: histology and GFAP/IBA1 immunohistochemistry; assay type: in vivo, mouse
Procedure: as §1, §2
Two weeks following injury, mice were deeply anesthetized using isoflurane and underwent transcardial perfusion with 30 ml of phosphate-buffered saline (PBS) followed by 120 ml of 4% paraformaldehyde (PFA) in PBS. The brains were collected and placed into a 4% PFA solution for post-fixation overnight, and then transferred to 25% followed by 30% sucrose solution in PBS for dehydration. Sections of a region extending from the striatum to the hippocampus were cut coronally into 25 μm thickness using a cryostat (Leica Biosystems Inc., Buffalo Grove, IL, USA) and stored in a cryoprotectant solution. These sections were subjected to Giemsa (nuclear/chromosomal) staining and immunohistochemical analysis.
Brain sections obtained 2 weeks post-TBI, with a thickness of 25 µm, were placed onto slides. These sections were stained using a 10% Giemsa KH2PO4 buffered solution (pH 4.5) for 30 min at 40 °C. Following a rinse, the slides underwent de-staining, differentiation, dehydration in absolute ethanol, cleared in xylene, and then were cover-slipped. Subsequently, the slides were scanned using an All-in-One Fluorescence Microscope BZ-X710 (Keyence Corporation of America, Itasca, IL, USA). Brain image areas were quantified using ImageJ 1.52q software (National Institutes of Health, Bethesda, MD, USA). The contusion volume size and lateral ventricle size were determined as described previously, using the calculation formulas as follows:
Contusion volume size: Σ (area of contralateral hemisphere–area of ipsilateral hemisphere)/Σ area of contralateral hemisphere × 100.
Lateral ventricle size: Σ area of ipsilateral lateral ventricle/Σ area of contralateral lateral ventricle.
Nine brain sections from each mouse were quantified, spanning regions from bregma 0.86 mm to − 1.46 mm.
Immunohistochemistry for GFAP and IBA1 was performed as described previously. […]

[3] = high dose, initial 5 min on Day 2, 1 week after CCI, vs CCI + Vehicle
[4] = high dose, vs CCI + vehicle, p < 0.05
[5] = low dose, p < 0.05 vs CCI + Vehicle
[6] = 2 weeks after CCI, 13.23 and 26.47 mg/kg I.P. at 30 min and 24 h
[7] = both low and high doses, p < 0.0001

Compound: Nc1cccc2c1C(=S)N(C1CCC(=O)NC1=O)C2=O (stereo not shown) [3-MP, 3-monothiopomalidomide]
- CCI-induced elevation of swing duration CV (gait) ([1]; both low and high doses, p < 0.05 vs CCI + Vehicle): significantly reduced
- CCI-induced asymmetry, elevated body swing test ([1]; high dose): trend towards normalization
- home cage activity during the initial 11 h following CCI ([1]; high dose, vs CCI + vehicle): did not reach statistical significance
- discrimination index (DI) of distance traveled ([1]; high dose, initial 5 min, vs CCI + Vehicle): substantially higher
- ambulatory time in the center zone, novelty-dependent exploration test [1, 3]: significantly lower
- distance traveled, novelty-dependent exploration test [1, 3]: significantly lower
- CCI-induced reduction in brake time (gait) ([1]; high dose, p < 0.05): significantly alleviated
- discrimination index (DI) of duration in the center [1, 4]: significantly higher
- home cage activity on the day after CCI [1, 4]: significantly higher
- lower home cage activity 24 h later (night + 1) ([1]; low dose and high dose, vs CCI + vehicle, p < 0.05): significantly mitigated
- CCI-induced asymmetry, elevated body swing test [1, 5]: notably reduced
- home cage activity during the initial 11 h following CCI ([1]; low dose, vs CCI + vehicle, p < 0.05): notably higher
- CCI-induced reduction in brake time (gait) ([1]; low dose): trend towards improvement
- paw angle impairment (gait) [1, 5]: mitigated
- contusion volume (loss of cortical tissue) [2, 6]: unchanged
- lateral ventricle enlargement [2, 6]: unchanged
- TBI-induced morphological alterations in astrocytes (surface area, cell volume, branch area, branch length, number of branches) ([2]; both low and high doses, ipsilateral (p < 0.0001) and contralateral cortex): significantly ameliorated
- CCI-induced microglial morphological alterations (ramification index, branches, branch length, spanned area, junctions, endpoints) [2, 7]: partially but significantly returned
- astrocyte complexity (total Sholl intersections) [2, 7]: significantly mitigated
